From publication PMC7725003, “Systematically Studying the Optimal Amino Acid Distribution Patterns of the Amphiphilic Structure by Using the Ultrashort Amphiphiles” (Frontiers in Microbiology, 2020)
Where no end group is shown, it is not given here.

How the values were obtained:
[1] = tested on: E. coli O78; assay type: cell-based, Escherichia coli; settings: O78, 24 h
Procedure, shortened: (§1)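 Broth microdilution adapted from NCCLS. Peptide series in 0.2% BSA meets an equal volume of MHB culture at 0.5–1 × 10^6 CFU mL^–1; 24 h incubation at 37°C; MIC read as 95% growth inhibition at 492 nm.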

[2] = tested on: E. coli UB1005; assay type: cell-based, Escherichia coli; settings: UB1005, 24 h
Procedure, shortened: as §1

[3] = tested on: E. coli 25922; assay type: cell-based, Escherichia coli; settings: 25922, 24 h
Procedure, shortened: as §1

[4] = tested on: S. aureus 29213; assay type: cell-based, Staphylococcus aureus; settings: 29213, 24 h
Procedure, shortened: as §1

[5] = tested on: S. aureus 25923; assay type: cell-based, Staphylococcus aureus; settings: 25923, 24 h
Procedure, shortened: as §1

[6] = tested on: E. coli 25922; assay: Time-kill kinetics; assay type: cell-based, Escherichia coli; settings: 1 × MIC concentration (Figure 5 legend: 1× MBC); mean of three independent experiments
Excerpt: (§2) The kinetics of the sterilization activity of the peptide was further evaluated. […] The results of the kinetic were the mean values of three independent experiments, and each independent experiment contained three technical replicates.

[7] = tested on: S. typhimurium 14028; assay type: cell-based, Salmonella typhimurium; settings: 14028, 24 h
Procedure, shortened: as §1

[8] = tested on: S. typhimurium 7731; assay type: cell-based, Salmonella typhimurium; settings: 7731, 24 h
Procedure, shortened: as §1

[9] = tested on: Gram-negative bacteria
Procedure, shortened: (§3)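 MIC is the lowest peptide concentration giving 95% growth inhibition, read at 492 nm after 24 h incubation at 37°C. Peptides were serially diluted in 0.2% BSA and added to mid-logarithmic cells at 0.5–1 × 10^6 CFU mL^–1 in MHB, following a modified NCCLS method, with more than 3 repeats.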

[10] = tested on: Gram-positive bacteria
Procedure, shortened: as §3

[11] = tested on: MRSA 43300; assay type: cell-based, methicillin-resistant S. aureus; settings: 43300, 24 h
Procedure, shortened: as §1

[12] = tested on: S. aureus 29213; assay: Salt sensitivity assay (MIC); assay type: cell-based, Staphylococcus aureus
Procedure, shortened: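 Physiological salts (150 mM NaCl, 4.5 mM KCl, 6 μM NH4Cl, 8 μM ZnCl2, 1 mM MgCl2, 2mM CaCl2, 4 μM FeCl3) added to MHB. Bacteria at 0.5–1 × 10^6 CFU/mL exposed to serially diluted peptides for 24 h at 37°C. MIC read as lowest peptide concentration giving 95% growth inhibition by absorbance at 492 nm.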

[13] = tested on: P. aeruginosa 27853; assay type: cell-based, Pseudomonas aeruginosa; settings: 27853, 24 h
Procedure, shortened: as §1

[14] = tested on: S. epidermidis 12228; assay type: cell-based, Staphylococcus epidermidis; settings: 12228, 24 h
Procedure, shortened: as §1

[15] = tested on: E. faecalis 29212; assay type: cell-based, Enterococcus faecalis; settings: 29212, 24 h
Procedure, shortened: as §1

[16] = tested on: Listeria monocytogenes CGMCC 1.1075; assay type: cell-based; settings: CGMCC 1.1075, 24 h
Procedure, shortened: as §1

[17] = tested on: S. aureus 29213; assay: Time-kill kinetics; assay type: cell-based, Staphylococcus aureus; settings: 1 × MIC concentration (Figure 5 legend: 1× MBC); mean of three independent experiments
Excerpt: as §2

[18] = tested on: E. coli ATCC 25922; assay: Salt sensitivity assay (MIC); assay type: cell-based, Escherichia coli
Procedure, shortened: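 Peptides diluted serially in 0.2% BSA solution were combined at identical volumes with mid-logarithmic E. coli ATCC 25922 in MHB (0.5–1 × 10^6 CFU mL^–1) in 96-well plates, with or without a physiological salt. Plates were incubated for 24 h at 37°C. MIC was the lowest concentration inhibiting 95% of growth, measured as absorbance at 492 nm on a microplate reader.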

[19] = tested on: S. pullorum 7913; assay type: cell-based, Salmonella pullorum; settings: 7913, 24 h
Procedure, shortened: as §1

[20] = tested on: B. subtilis 63501; assay type: cell-based, Bacillus subtilis; settings: 63501, 24 h
Procedure, shortened: as §1

[21] = geometric mean of MICs (Table 3)
[22] = therapeutic index TI = MHC/GM MIC
[23] = no added salt, three independent assays

RWRWRWRWW-NH2 [W5]
94.12: TI, Gram-negative bacteria [9, 22]
≤ 0.25 min: time to obliterate the growth of 99.99% of bacteria [6]
4 µM: MIC [1] | MBC [2] | MBC [3] | MBC [4] | MBC [5] | MIC [7] | MIC [8] | MBC [11] | MIC, MgCl2 ([12]; 1 mM MgCl2) | MIC, KCl ([12]; 4.5 mM KCl) | MIC [13] | MBC [14] | MIC [15] | MBC [16] | MIC, FeCl3 ([18]; 4 μM FeCl3) | MIC, NH4Cl ([18]; 6 μM NH4Cl) | MIC, ZnCl2 ([18]; 8 μM ZnCl2) | MIC, CaCl2 ([18]; 2 mM CaCl2) | MIC, KCl ([18]; 4.5 mM KCl) | MIC, NaCl ([18]; 150 mM NaCl) | MBC [19]
1 µM: MIC, FeCl3 ([12]; 4 μM FeCl3) | MIC [20]
2.72 µM: GM, Gram-negative bacteria [9, 21]
2.00 µM: GM, Gram-positive bacteria [10, 21]
2 µM: MIC [2] | MIC [3] | MIC [4] | MIC [5] | MIC [11] | MIC, NH4Cl ([12]; 6 μM NH4Cl) | MIC, ZnCl2 ([12]; 8 μM ZnCl2) | MIC, CaCl2 ([12]; 2 mM CaCl2) | MIC, NaCl ([12]; 150 mM NaCl) | MIC, Control [12, 23] | MIC [14] | MIC [16] | MIC, MgCl2 ([18]; 1 mM MgCl2) | MIC, Control [18, 23] | MIC [19] | MBC [20]
8 µM: MBC [1] | MBC [7] | MBC [8] | MBC [13] | MBC [15]
128.00: TI, Gram-positive bacteria [10, 22]
≤ 3 min: time to clear off the growth of 99.99% of bacteria [17]
